What was measured:
[1] = in vitro; type: cell-based, human; settings: human, differentiated hl-60 cells, 300 μmol/L, about 24 hours, PMA-differentiated HL-60 cells, LDH; no-treatment 0%, cell lysis buffer 100%; read-out: cytotoxicity (%) Evaluation compound results
Procedure: An HL-60 cell line (human acute promyelocytic leukemia cells) was successively cultured in RPMI 1640 containing 20% fetal bovine serum (FBS) at 37° C. in 95% atmosphere/5% CO2. Before evaluation, the cells were pre-cultured for about 72 hours in the presence of 10 nM phorbol 12-myristate 13-acetate (PMA) to induce macrophage-like differentiation.
Evaluation compounds were dissolved in DMSO to obtain 30 mmol/L solutions (or suspensions). Each DMSO solution was diluted 100-fold with RPMI 1640 containing 2% FBS (final concentration of the compound: 300 μmol/L) to obtain a treatment solution. The culture supernatant of the differentiated HL-60 cells was removed, and each treatment solution was added and cultured for about 24 hours, followed by cytotoxicity evaluation.
The activity of lactate dehydrogenase (LDH) was measured in the treatment solutions exposed to the cells for about 24 hours by using a commercial kit (Cytotoxicity LDH Assay Kit-WST, Dojindo Laboratories) and a plate reader (Tecan Infinite M1000). The obtained measurement values were used to calculate cytotoxicity (%) as comparison values for each evaluation compound-treated group, with the no-treatment group taken as 0% and the cell lysis buffer-treated group taken as 100%. The test was conducted in triplicate in three wells each, and the average values were used as adopted values.

[2] = Study for confirmation of conversion to brexpiprazole in a buffer (stability of the evaluation compounds); type: physicochemical; settings: in buffer, average of duplicate; for Concentration of brexpiprazole formed: 60-minute reaction sample; for Concentration of evaluation compound decreased: decrease in 60-minute vs 0-minute reaction sample
Procedure: The conversion from the evaluation compounds to brexpiprazole in a buffer (i.e., the stability of the evaluation compounds) was evaluated.
The Example 1 compound was dissolved in acetonitrile/water (1:1, v/v) to 10 mmol/L and further diluted with acetonitrile/water (1:1, v/v) to 100 μmol/L for use.
The other Example compounds and the Reference Example 5 compound to Reference Example 7 compound were each dissolved in DMSO to 10 mmol/L and further diluted with acetonitrile to 100 μmol/L for use, except for the following compounds.
The compounds of Examples 52, 95, 96, 117, and 130 (EX 52, EX 95, EX 96, EX 117, and EX 130) were dissolved in acetonitrile/water (8:2, v/v) to 10 mmol/L and further diluted with acetonitrile to 100 μmol/L for use.
The compound of Example 97 (EX 97) was dissolved in acetonitrile/water (8:2, v/v) to 10 mmol/L and further diluted with acetonitrile/water (8:2, v/v) to 100 μmol/L for use.
The compounds of Examples 15 and 116 (EX 15 and EX 116) were dissolved in DMSO to 1 mmol/L and further diluted with acetonitrile to 100 μmol/L for use.
The reaction was conducted by preparing each reaction solution such that the final concentration of each component was as follows. The test was conducted in duplicate.
For the compounds of Examples 1 to 8, 10 to 19, 26 to 27, 37, 50, 87 to 89, 91, 116, 121, 123, 150, and 151 (EX 1 to EX 8, EX 10 to EX 19, EX 26 to EX 27, EX 37, EX 50, EX 87 to EX 89, EX 91, EX 116, EX 121, EX 123, EX 150, and EX 151), and the compounds of Reference Examples 5 to 7 (REX 5 to REX 7), the reaction solution without the evaluation compound (198 μl) was pre-incubated at 37° C. for 3 minutes, and then each of the evaluation compound solutions (2 μl) was added and stirred; thereafter, the reaction was started at 37° C. At 0 minutes or 60 minutes after the start of the reaction, the reaction was stopped by adding and stirring a reaction stop solution (1000 μl) composed of acetonitrile/isopropanol (4:1, v/v) containing internal standard substances. However, the 0-minute reaction sample (198 μl) was prepared by adding the evaluation compound (2 μl) after adding the reaction stop solution (1000 μl). The samples after stopping the reaction were used as the measurement samples. Calibration curve samples with the same composition were prepared (final concentrations of the evaluation compounds and brexpiprazole: 0.01, 0.1, and 1 μmol/L, with the proviso that for the evaluation compounds only, the 0-minute reaction samples were also used as calibration curve samples for 1 μmol/L).
For the compounds of Examples 24 to 25, 28 to 29, 32 to 36, 40 to 49, 51 to 60, 62 to 64, 66 to 77, 80 to 86, 90, 92 to 111, 113, 115, 117 to 120, 122, 124 to 130, 132 to 147, and 152 to 160 (EX 24 to EX 25, EX 28 to EX 29, EX 32 to EX 36, EX 40 to EX 49, EX 51 to EX 60, EX 62 to EX 64, EX 66 to EX 77, EX 80 to EX 86, EX 90, EX 92 to EX 111, EX 113, EX 115, EX 117 to EX 120, EX 122, EX 124 to EX 130, EX 132 to EX 147, and EX 152 to EX 160), the reaction solution without the evaluation compound (148.5 μl) was pre-incubated at 37° C. for 3 minutes, and then each of the evaluation compound solutions (1.5 μl) was added and stirred; thereafter, the reaction was started at 37° C. At 0 minutes or 60 minutes after the start of the reaction, the reaction was stopped by adding and stirring a reaction stop solution (600 μl) composed of acetonitrile/isopropanol (4:1, v/v) containing internal standard substances. However, the 0-minute reaction sample (148.5 μl) was prepared by adding the evaluation compound (1.5 μl) after adding the reaction stop solution (600 μl). The samples after stopping the reaction were used as the measurement samples. Calibration curve samples with the same composition were prepared (final concentrations of the evaluation compounds and brexpiprazole: 0.01, 0.1, and 1 μmol/L, with the proviso that for the evaluation compounds only, the 0-minute reaction samples were also used as calibration curve samples for 1 μmol/L). […]

Row | Structure (SMILES) | Concentration of brexpiprazole formed [2] | Concentration of evaluation compound decreased [2] | cytotoxicity at 24 h, 300 µM [1]
1 | CCOCC(=O)OCOP(=O)([O-])OC[N+]1(CCCCOc2ccc3ccc(=O)[nH]c3c2)CCN(c2cccc3sccc23)CC1 [EX 31, (4-(benzo[b]thiophen-4-yl)-1-(4-((2-oxo-1,2-dihydroquinolin-7-yl)oxy)butyl)piperazin-1-ium-1-yl)methyl ((2-ethoxyacetoxy)methyl) phosphate] | – | – | -8%
2 | CC1(C)OCC(COC(=O)CCCCC(=O)OCOP(=O)([O-])OC[N+]2(CCCCOc3ccc4ccc(=O)[nH]c4c3)CCN(c3cccc4sccc34)CC2)CO1 [EX 75, (4-(benzo[b]thiophen-4-yl)-1-(4-((2-oxo-1,2-dihydroquinolin-7-yl)oxy)butyl)piperazin-1-ium-1-yl)methyl (((6-((2,2-dimethyl-1.3-dioxan-5-yl)methoxy)-6-oxohexanoyl)oxy)methyl) phosphate] | 0 nM | 70 nM | –
3 | O=C(OCCCCCCOP(=O)([O-])OC[N+]1(CCCCOc2ccc3ccc(=O)[nH]c3c2)CCN(c2cccc3sccc23)CC1)c1ccc([N+](=O)[O-])cc1 [EX 85, (4-(benzo[b]thiophen-4-yl)-1-(4-((2-oxo-1,2-dihydroquinolin-7-yl)oxy)butyl)piperazin-1-ium-1-yl)methyl (6-((4-nitrobenzoyl)oxy)hexyl) phosphate] | 0 nM | 40 nM | –
4 | CCCCCCCCOP(=O)([O-])OC[N+]1(CCCCOc2ccc3ccc(=O)[nH]c3c2)CCN(c2cccc3sccc23)CC1 [EX 37, (4-(benzo[b]thiophen-4-yl)-1-(4-((2-oxo-1,2-dihydroquinolin-7-yl)oxy)butyl)piperazin-1-ium-1-yl)methyl octyl phosphate] | 0 nM | 60 nM | –
5 | CC(C)NC(=O)CCCCCCCCC(=O)OCOP(=O)([O-])OC[N+]1(CCCCOc2ccc3ccc(=O)[nH]c3c2)CCN(c2cccc3sccc23)CC1 [EX 76, (4-(benzo[b]thiophen-4-yl)-1-(4-((2-oxo-1,2-dihydroquinolin-7-yl)oxy)butyl)piperazin-1-ium-1-yl)methyl (((10-(isopropylamino)-10-oxodecanoyl)oxy)methyl) phosphate] | 0 nM | 0 nM | –
6 | O=c1ccc2ccc(OCCCC[N+]3(COP(=O)([O-])OCC#CCCl)CCN(c4cccc5sccc45)CC3)cc2[nH]1 [EX 63, (4-(benzo[b]thiophen-4-yl)-1-(4-((2-oxo-1,2-dihydroquinolin-7-yl)oxy)butyl)piperazin-1-ium-1-yl)methyl (4-chlorobut-2-yn-1-yl) phosphate] | 0 nM | 20 nM | –
7 | CC(C)NC(=O)CCCC(=O)OCOP(=O)([O-])OC[N+]1(CCCCOc2ccc3ccc(=O)[nH]c3c2)CCN(c2cccc3sccc23)CC1 [EX 73, (4-(benzo[b]thiophen-4-yl)-1-(4-((2-oxo-1,2-dihydroquinolin-7-yl)oxy)butyl)piperazin-1-ium-1-yl)methyl (((5-(isopropylamino)-5-oxopentanoyl)oxy)methyl) phosphate] | 0 nM | 130 nM | –
8 | O=c1ccc2ccc(OCCCC[N+]3(COP(=O)([O-])OCCCO)CCN(c4cccc5sccc45)CC3)cc2[nH]1 [EX 6, (4-(benzo[b]thiophen-4-yl)-1-(4-((2-oxo-1,2-dihydroquinolin-7-yl)oxy)butyl)piperazin-1-ium-1-yl)methyl (3-hydroxypropyl) phosphate] | 0 nM | -110 nM | –

The next lines start with results.

Row | Concentration of brexpiprazole formed [2] | Concentration of evaluation compound decreased [2] | Structure (SMILES) | cytotoxicity at 24 h, 300 µM [1]
9 | 0 nM | -10 nM | CCCOP(=O)([O-])OC[N+]1(CCCCOc2ccc3ccc(=O)[nH]c3c2)CCN(c2cccc3sccc23)CC1 [EX 88, (4-(benzo[b]thiophen-4-yl)-1-(4-((2-oxo-1,2-dihydroquinolin-7-yl)oxy)butyl)piperazin-1-ium-1-yl)methyl propyl phosphate] | –
10 | 0 nM | 100 nM | O=C(OCOP(=O)([O-])OC[N+]1(CCCCOc2ccc3ccc(=O)[nH]c3c2)CCN(c2cccc3sccc23)CC1)C12CC3CC(CC(C3)C1)C2 [EX 124, (((1s,3s)-adamantane-1-carbonyl)oxy)methyl ((4-(benzo[b]thiophen-4-yl)-1-(4-((2-oxo-1,2-dihydroquinolin-7-yl)oxy)butyl)piperazin-1-ium-1-yl)methyl) phosphate] | –
11 | 210 nM | 220 nM | CCCCCC(=O)OC[N+]1(CCCCOc2ccc3ccc(=O)[nH]c3c2)CCN(c2cccc3sccc23)CC1.[I-] [REX 6, 4-(Benzo[b]thiophen-4-yl)-1-((hexanoyloxy)methyl)-1-(4-((2-oxo-1,2-dihydroquinolin-7-yl)oxy)butyl)piperazin-1-ium iodide, reference compound] | –
12 | 260 nM | 200 nM | CCC(=O)OC[N+]1(CCCCOc2ccc3ccc(=O)[nH]c3c2)CCN(c2cccc3sccc23)CC1.[I-] [REX 5, 4-(Benzo[b]thiophen-4-yl)-1-(4-((2-oxo-1,2-dihydroquinolin-7-yl)oxy)butyl)-1-((propionyloxy)methyl)piperazin-1-ium iodide, reference compound] | –
13 | 0 nM | -20 nM | CCOCCOC(=O)[C@@H](C)OP(=O)([O-])OC[N+]1(CCCCOc2ccc3ccc(=O)[nH]c3c2)CCN(c2cccc3sccc23)CC1 [EX 109, (R)-(4-(benzo[b]thiophen-4-yl)-1-(4-((2-oxo-1.2-dihydroquinolin-7-yl)oxy)butyl)piperazin-1-ium-1-yl)methyl (1-(2-ethoxyethoxy)-1-oxopropan-2-yl) phosphate] | –
